Test results taken from article PMC12693416, “From Lipid Regulation to Neuroprotection: Multitarget (Benzo)thiazine Derivatives as Promising Leads” (Molecules, 2025).
pIC50: −log10 of the molar value. Like-named read-outs stand apart in the source and are kept apart here.

Key:
[1] = Radical scavenging of DPPH; details: DPPH 200 μM, 30 min incubation
Protocol: Compounds, dissolved in absolute methanol, at concentrations of 25–400 μM, were added to an equal volume of a methanolic solution of DPPH (final concentration 200 μM) at room temperature (22 ± 2 °C).

[2] = Iron chelation (ferrozine assay); details: for % of Fe(II) Chelation (at 100 μM): 100 μM compound, Fe2+ 20 μM
Protocol: […] The reaction was initiated with the addition of a 100 μM aqueous ferrozine solution, which chelates iron ions, resulting in an increased maximum absorbance at 562 nm. After incubation at 37 °C for 10 min, the mixture’s absorbance is measured at 562/700 nm. Each value is expressed as the mean of 3 tests per sample [46].

[3] = biological target: soybean lipoxygenase (LOX-3); assay: Soybean lipoxygenase (LOX-3) inhibition; format: biochemical; details: after 5 min of incubation; sodium linoleate 100 μM, pH 9.0
Protocol: Lipoxygenase (LOX) inhibitory activity was determined using soybean lipoxygenase (250 U/mL) and sodium linoleate (100 μM) as substrate, in Tris–HCl buffer pH 9.0.

[4] = biological target: T1, acetylcholinesterase from eel (Electrophorus electricus, UniProt O42275); assay: Acetylcholinesterase (AChE) inhibition (Ellman); format: biochemical; details: for inhibition at 300 µM: read-out: AChE Inhibition (%), 300 μM compound
T1 construct: purchased Sigma
Protocol: (0.31 mM) in phosphate buffer with pH = 7. The incubation mixture is monitored for 7 min at 37 °C.

hyperlipidaemic mice = assay: Tyloxapol (Triton WR 1339)-induced hyperlipidemia, plasma lipid parameters; format: in vivo; details: i.p. 84 μmol/kg; for change in vivo at 84 µmol/kg / inhibition in vivo at 84 µmol/kg: Mus musculus, ip, 24 h
Protocol: An aqueous solution of Triton WR 1339 was given i.p. to mice (400 mg/kg of body weight) and one hour later the test compounds (84 μmol/kg of body weight), dissolved in saline or saline only, were administered i.p. After 24 h, blood was taken from the aorta/heart and used for the determination of plasma total cholesterol (TC), triglyceride (TG) levels, and high-density lipoprotein (HDL) levels, using commercially available kits (Biosis Cholesterol Enzymatic/PAP, Biosis Triglycerides GPO/PAP, and Biosis HDL Phosphovolframic, Biosis, Athens Greece). Levels of plasma lipids were determined in duplicate while values presented are the mean from 8 animals (per compound). The levels of low-density lipoprotein (LDL) are calculated according to the equation: LDL (mg/dL) = 3/4 * (TC-HDL).

[5] = tested on: plasma of hyperlipidaemic mice; assay: Total antioxidant capacity (TAC) of plasma in hyperlipidaemic mice; format: in vivo; details: Mus musculus, ip, 24 h, i.p. 84 μmol/kg, read-out: Total Antioxidant Capacity (TAC) Increase (%)
[6] = tested on: carrageenan-induced mouse paw edema; assay: Carrageenan-induced mouse paw edema; format: in vivo, C57BL/6 mice; details: ip, 3.5 h, i.p. 0.30 mmol/kg, female C57BL/6, 3.5 h after carrageenan, read-out: % Edema (decrease of carrageenan-induced paw edema vs control)
Protocol: For the in vivo anti-inflammatory activity, C57BL/6 mice were injected with 0.025 mL carrageenan (2% w/v solution in saline) i.d. into the right hind paw, the left paw serving as control. The test compounds dissolved in saline (300 μmol/kg) were given i.p. right after the carrageenan injection, and 3.5 h later the produced edema was estimated as paw weight increase. Results are expressed as percentage of reduction in paw-edema and are the mean of 6 animals (per compound).

[7] = tested on: mouse liver microsomal lipid peroxidation; assay: Inhibition of mouse liver microsomal lipid peroxidation (LP); details: read-out: LP IC50 Value; 45 min incubation
AChE = details: read-out: IC50 against AChE; cited from earlier work
[8] = LDL calculated as 3/4*(TC-HDL), read-out: % LDL Decrease
[9] = plasma, vs tyloxapol control, read-out: % Total Cholesterol (TC) Reduction
[10] = plasma, vs tyloxapol control, read-out: % HDL Increase
[11] = plasma, vs tyloxapol control, read-out: % Triglycerides (TG) Reduction

T1 sequence (O42275 24-633): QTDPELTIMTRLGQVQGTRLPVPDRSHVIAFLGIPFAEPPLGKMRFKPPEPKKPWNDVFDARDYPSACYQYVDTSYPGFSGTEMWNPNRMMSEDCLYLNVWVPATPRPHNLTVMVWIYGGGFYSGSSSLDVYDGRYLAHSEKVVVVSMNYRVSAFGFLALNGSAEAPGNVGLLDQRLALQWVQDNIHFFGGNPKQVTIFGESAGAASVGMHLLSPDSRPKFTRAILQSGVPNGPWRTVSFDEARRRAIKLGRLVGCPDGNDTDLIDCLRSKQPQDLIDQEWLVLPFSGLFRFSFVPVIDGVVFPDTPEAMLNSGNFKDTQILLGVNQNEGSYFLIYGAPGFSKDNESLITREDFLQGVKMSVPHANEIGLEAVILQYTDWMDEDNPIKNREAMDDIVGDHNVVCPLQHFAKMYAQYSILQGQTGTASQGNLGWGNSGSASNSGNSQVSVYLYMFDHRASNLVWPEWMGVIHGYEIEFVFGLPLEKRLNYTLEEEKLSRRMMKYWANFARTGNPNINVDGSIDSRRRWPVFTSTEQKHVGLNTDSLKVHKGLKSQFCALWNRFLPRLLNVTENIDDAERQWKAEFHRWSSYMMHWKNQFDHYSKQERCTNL

Row | Compound | pIC50 [1] | % of Fe(II) Chelation (at 100 μM) [2] [%] | IC50 [3] [µM] | inhibition at 300 µM [4] [%] | change in vivo at 84 µmol/kg (hyperlipidaemic mice; ratio calculated, read-out: % HDL/LDL Increase (antiatherogenic index)) [%] | inhibition in vivo at 84 µmol/kg (hyperlipidaemic mice; [8]) [%] | inhibition in vivo at 84 µmol/kg (hyperlipidaemic mice; [9]) [%] | % Triglycerides (TG), value marked footnote 1: increase percentage (hyperlipidaemic mice; plasma, TG increase, not reduction) | change in vivo at 84 µmol/kg [5] [%] | inhibition in vivo at 300 µmol/kg [6] [%] | pIC50 [7] | AChE Inhibition (%) ([4]; 300 μM compound) | change in vivo at 84 µmol/kg (hyperlipidaemic mice; [10]) [%] | inhibition in vivo at 84 µmol/kg (hyperlipidaemic mice; [11]) [%] | % of Fe(II) Chelation at 10 μM ([2]; 10 μM compound) [%] | pIC50 (AChE)
1 | O=C(c1cccnc1)N1CCSC(c2ccc(-c3ccccc3)cc2)C1 (centres unmarked) [Compound 9] | < 3.40 | 2 | 192 | 33 | 105 | 44 | 35 | 33 *^,1% | 60 | 34 | < 3.00 |  |  |  |  | 
2 | c1ccc(-c2ccc(C3CNc4ccccc4S3)cc2)cc1 (centres unmarked) [Compound 11, 2-([1,1′-Biphenyl]-4-yl)-3,4-dihydro-2H-benzo[b][1,4]thiazine] | < 3.40 | 10 | 134 |  |  | 48 | 23 |  | > 200 | 40 | 4.52 | inactivity | 101 | 59 |  | 
3 | COc1ccc(/C=C/C(=O)N2CC(c3ccc(-c4ccccc4)cc3)Sc3ccccc32)cc1OC (centres unmarked) [Compound 12, (E)-1-(2-([1,1′-Biphenyl]-4-yl)-2,3-dihydro-4H-benzo[b][1,4]thiazin-4-yl)-3-(3,4-dimethoxyphenyl)prop-2-en-1-one] | < 3.40 | 17 | 74 | 17 |  | 59 | 27 |  | 203 | 43 | < 3.00 |  | 63 | 29 |  | 
4 | O=C(c1cc(O)c(O)c(O)c1)N1CC(c2ccc(-c3ccccc3)cc2)Sc2ccccc21 (centres unmarked) [Compound 13, (2-([1,1′-Biphenyl]-4-yl)-2,3-dihydro-4H-benzo[b][1,4]thiazin-4-yl)(3,4,5-trihydroxyphenyl)methanone] | 4.44 | 91 | 37 | ~45 |  | 62 | 47 |  | 60 | ≤ 60 | 4.62 |  | 25 | 53 | 12 | 
5 | COc1cc(C(=O)N2CC(c3ccc(-c4ccccc4)cc3)Sc3ccccc32)cc(OC)c1OC (centres unmarked) [Compound 14, (2-([1,1′-Biphenyl]-4-yl)-2,3-dihydro-4H-benzo[b][1,4]thiazin-4-yl)(3,4,5-trimethoxyphenyl)methanone] | < 3.40 | 6 | 71 | ~45 |  | 73 | 51 |  | 144 | 38 | < 3.00 |  | 13 | 50 |  | 
6 | CC(C)(C)c1cc(C(=O)N2CC(c3ccc(-c4ccccc4)cc3)Sc3ccccc32)cc(C(C)(C)C)c1O (centres unmarked) [Compound 15, (2-([1,1′-Biphenyl]-4-yl)-2,3-dihydro-4H-benzo[b][1,4]thiazin-4-yl)(3,5-ditertbutyl-4-hydroxyphenyl)methanone] | < 3.40 | 8 | 83 | 23 |  | 74 | 55 |  | 131 | 31 | < 3.30 |  | 79 | 35 |  | 
7 | CC(C)Cc1ccc(C(C)C(=O)N2CC(c3ccc(-c4ccccc4)cc3)Sc3ccccc32)cc1 (centres unmarked) [Compound 17, 1-(2-([1,1′-Biphenyl]-4-yl)-2,3-dihydro-4H-benzo[b][1,4]thiazin-4-yl)-2-(4-isobutylphenyl)propan-1-one] | < 3.40 | 29 | 104 | 13 |  | 68 | 45 |  | 139 | 39 | < 3.00 |  | 43 | 58 |  | 
8 | O=C(/C=C/c1ccc(O)c(O)c1)O[C@@H]1C[C@](O)(C(=O)O)C[C@@H](O)[C@H]1O [chlorogenic acid] |  |  |  |  |  |  |  |  |  |  |  |  |  |  |  | ~3.56
9 | COc1cc(C(=O)O)cc(OC)c1O [syringic acid] |  |  |  |  |  |  |  |  |  |  |  |  |  |  |  | ~3.83
